Test results published in US4973603A, “Platelet activating factor antagonist and methods of use therefor” (priority 1989, dated 1990).
Read-outs that look alike come from different tables or passages of the source.

Tests used:
[1] = tested on: arachidonic acid; assay: The Mouse Ear Edema Test (arachidonic acid-induced skin edema); assay type: in vivo, mouse (Charles River CD-1, female); settings: 1 hour before arachidonic acid (0.5 mg)
Source text: The direct application of arachidonic acid to skin, such as the mouse ear, produces an edematous response which is believed to be mediated by eicosanoids resulting from the actions of both cyclooxygenase and lipoxygenase systems. J. M. Young, D. A. Spires, C. J. Bedford, B. Wagner, S. J. Ballaron and L. M. DeYoung, J. Invest. Dermatol. 82:367-371 (1984); E. E. Opas, R. J. Bonney, and J. L. Hanes J. Invest. Dermatol. 84:253-256 (1985). PAF has been reported to cause the release of arachidonic acid, and as a result, gives rise to increased levels of eicosanoids in the exposed tissues. F. H. Chilton, J. T. Flaherty, C. E. Walsh, M. J. Thomas, R. L. Wykle, L. R. DeChatelet and B. M. Waite, J. Biol. Chem., 257:5402-5407 (1982). Thus, the mouse ear edema test can be used to discover substances which antagonize the effects of PAF.
The test drugs were dissolved in 10 μl ethanol and applied to the inner surface of the left ears of Charles River CD-1 female mice. Control values were obtained by applying 10 μl of ethanol to the right ear so that each mouse served as its own control. One hour later, arachidonic acid (0.5 mg/ear in 10 μl ethanol) was applied to both ears and allowed to act on the skin for one hour. The mice were then killed by cervical dislocation and the ears removed so that all tissue samples were of equivalent areas. The extent of edema in each sample was measured by weighing on an analytical balance.

[2] = tested on: gastric mucosa; settings: 1 hour; for Mean Score: scale 0-3 (0 = normal mucosa)
Experimental: Robert and Szabo, In: Selye's Guide to Stress Research, (Vol. 2, A. Selye, Ed.) New York; Van Nostrand Reinhold Co., pp. 22-46 (1983); and Robert et al., Gastroenterology, 77:433-443 (1979). Experimental groups of 5-11 rats (Charles River CD) were fasted for 24 hours before the administration of either aspirin, Formula I or indomethacin by a rubber stomach tube (Rusch No. 8). The animals were killed 1 hour later by carbon dioxide asphyxiation. At that time, 4 ml of 10% aqueous buffered formaldehyde (formalin) was injected directly into the stomach of each animal. […] After 5 minutes of in situ fixation, the stomach and proximal duodenum were removed, opened along the greater curvature, pinned on a cork with mucosa upward, and immersed in 10% formaldehyde until further processing. Szabo, S. et al., J. Pharmacol. Meth., 13:59-66 (1985). The gastric lesions were then evaluated by direct visual inspection.
For comparative purposes, a semiquantitative scale of 0-3 was used to assess the extent of gastric mucosal lesions. Szabo et al., Science, 214:200-202 (1981); and Szabo et al., Gastroenterology, 85:1384-1390 (1983). According to this scale, a score of 0 indicates a normal mucosa; 1 represents the appearance of between 1 and 4 small petechiae; 2 indicates the presence of 5 or more petechiae or hemmorhagic streaks up to 4 mm in length; 3 represents the appearance of erosions longer than 5 mm or confluent hemmorrhages.

[3] = tested on: platelet activating factor (PAF); assay: PAF Induced Mortality; assay type: in vivo, mouse (Charles River CD-1, female); settings: for protective effect (in words): compared with Formula I
Experimental: The induction of mortality by the injection of low doses of PAF into mice has been described as a method for assessing the effectiveness of agents to antagonize the anaphylactic properties of PAF by J. M. Young, P. J. Maloney, S. W. Jubb and J. S. Clarke, in Prostaglandins, 30:545-551 (1985). Charles River CD-1 female mice (25-30 g) were given intraperitoneal injections of PAF (10 μg) dissolved in 100 μl of 5% ethanol-saline. […] Test drugs were orally administered in 50 μl of peanut oil one hour prior to PAF injection. Control mice were dosed with vehicle only. Mortality was assessed by counting survivors at one hour, two hours, and twenty four hours after the PAF injection.

[4] = tested on: platelet activating factor (PAF); assay: PAF Induced Paw Edema in the Mouse; assay type: in vivo, mouse (Charles River CD-1, female); settings: 1 hour before PAF (1 ug/paw), 15 min after PAF
Experimental: The experimental procedure was adapted from Calhoun et al., Agents & Actions, 21:306-309 (1987). Charles River CD-1 female mice (20-25 G) were given a dose of Formula I, or phenidone, using peanut oil as a carrier. Control mice were given doses of the carrier alone. The drugs were administered orally in a 50 μl volume of peanut oil. One hour later, 1.0 μg of PAF dissolved in 50 μl of 5% ethanol-saline was injected subcutaneously into the plantar surface of the right hind paw. The volume of this injected foot to the level of the lateral malleous was measured by water displacement immediately before drug administration and again 15 minutes after PAF injection.
The effectiveness of each compound was analyzed in the following manner. The individual paw volumes were compared by a paired t test analysis in which predrug paw volumes were compared to paw volumes 15 minutes after PAF injection to determine the level of statistical significance. The percent inhibition of edema volume was obtained from the ratio of the mean predrug volume to the mean volume after PAF.

[5] = tested on: platelet activating factor (PAF); settings: reported by Calhoun et al., Agents & Actions, 21:306-309 (1987); cited from earlier work
[6] = tested on: gastric mucosa; settings: common adverse effect of consumption; cited from earlier work
[7] = 40 mg/kg oral, 1 hr after PAF (10 μg i.p.)
[8] = 40 mg/kg oral, 2 hrs after PAF (10 μg i.p.)
[9] = 40 mg/kg oral, 24 hrs after PAF (10 μg i.p.)
[10] = 20 mg/kg oral, 1 hr after PAF (10 μg i.p.)
[11] = 20 mg/kg oral, 2 hrs after PAF (10 μg i.p.)
[12] = 20 mg/kg oral, 24 hrs after PAF (10 μg i.p.)

COc1ccc2c(c1)c(CC(=O)O)c(C)n2C(=O)c1ccc(Cl)cc1 [Indomethacin, indomethacin]
% Inhibition of Edema ([1]; 0.05 mg/ear topical): 24.1%
% Inhibition of Edema ([1]; 0.10 mg/ear topical): 21.8%
Incidence (rats with lesions/total tested) ([2]; 10 mg/kg by stomach tube): 2/5
Mean Score ([2]; 10 mg/kg by stomach tube): 0.6
Incidence (rats with lesions/total tested) ([2]; 20 mg/kg by stomach tube): 6/11
Mean Score ([2]; 20 mg/kg by stomach tube): 0.77

O=C1CCN(c2ccccc2)N1 [Phenidone, phenidone, reference compound]
Survivors (%) [3, 7]: 20%
Survivors/N [3, 7]: 1/5
Survivors (%) [3, 8]: 20%
Survivors/N [3, 8]: 1/5
Survivors (%) [3, 9]: 20%
Survivors/N [3, 9]: 1/5
protective effect (in words) [3]: less protective than Formula I, particularly at longer time intervals
% Inhibition of Edema ([1]; 0.063 mg/ear topical): 15.4%
% Inhibition of Edema ([1]; 0.13 mg/ear topical): 26.6%
% Inhibition of Edema ([1]; 0.25 mg/ear topical): 24.4%
% Inhibition of Edema ([4]; 40 mg/kg oral): 20.4%
% Inhibition of Edema ([4]; 80 mg/kg oral): 35.7%
effectiveness against PAF edema (in words) [5]: effective against PAF edema
gastrointestinal damage (in words) [6]: gastrointestinal damage, generally manifested as bleeding and/or frank ulceration

COc1ccc2cc([C@H](C)C(=O)O)ccc2c1 [Naproxen, naproxen, reference compound]
Survivors (%) [3, 10]: 40%
Survivors/N [3, 10]: 4/10
Survivors (%) [3, 11]: 40%
Survivors/N [3, 11]: 4/10
Survivors (%) [3, 12]: 20%
Survivors/N [3, 12]: 2/10
Survivors (%) [3, 7]: 100%
Survivors/N [3, 7]: 5/5
Survivors (%) [3, 8]: 60%
Survivors/N [3, 8]: 3/5
Survivors (%) [3, 9]: 60%
Survivors/N [3, 9]: 3/5
protective effect (in words) [3]: less protective than Formula I, particularly at longer time intervals
gastrointestinal damage (in words) [6]: gastrointestinal damage, generally manifested as bleeding and/or frank ulceration

CC(=O)Oc1ccccc1C(=O)O [Aspirin, aspirin]
Mean Score ([2]; 100 mg/kg by stomach tube): 1.9
